The values that follow come from patent US20120108636A1, “Allosteric Enhancers of th A1 Adenosine Receptor” (King Pharmaceuticals Research and Development, Inc., priority 2008, published 2012).

The melting point is the temperature, or range, at which the solid turns liquid.

Structures are written as SMILES.

Regarding `COCCOc1ccc(-c2sc(N)c(C(=O)c3ccc(Cl)cc3)c2CN(C2CCCCC2)C2CCCCC2)cc1`, the melting point lay within 162 to 164 °C. The result for `N#Cc1ccc(-c2sc(N)c(C(=O)c3ccc(Cl)cc3)c2CN(C2CCCCC2)C2CCCCC2)cc1` [Example 10, {2-Amino-5-(4-cyanophenyl)-4-[(dicyclohexylamino)methyl]thiophen-3-yl}(4-chlorophenyl)methanone] reads 196 to 200 °C; that for `CC(C)(C)c1ccc(-c2sc(N)c(C(=O)c3ccc(Cl)cc3)c2CN(C2CCCCC2)C2CCCCC2)cc1` [Example 11, {2-Amino-5-(4-t-butylphenyl)-4-[(dicyclohexylamino)methyl]thiophen-3-yl}(4-chlorophenyl)methanone], 180 to 184 °C; that for `Nc1sc(-c2ccc(Cl)cc2)c(CN(C2CCCCC2)C2CCCCC2)c1C(=O)c1ccc(Cl)cc1` [Example 12, {2-Amino-5-(4-chlorophenyl)-4-[(dicyclohexylamino)methyl]thiophen-3-yl}(4-chlorophenyl)methanone], 200 to 204 °C. As to `Nc1sc(-c2ccccc2F)c(CN(C2CCCCC2)C2CCCCC2)c1C(=O)c1ccc(Cl)cc1` [Example 13, {2-Amino-4-[(dicyclohexylamino)methyl]-5-(2-fluorophenyl)thiophen-3-yl}(4-chlorophenyl)methanone], the melting point was 223 to 225 °C.

In the case of `Nc1sc(-c2cccc(F)c2)c(CN(C2CCCCC2)C2CCCCC2)c1C(=O)c1ccc(Cl)cc1` [Example 14, {2-Amino-4-[(dicyclohexylamino)methyl]-5-(3-fluorophenyl)thiophen-3-yl}(4-chlorophenyl)methanone], the melting point fell in the range of 205 to 207 °C. For `Nc1sc(-c2ccc(F)cc2)c(CN(C2CCCCC2)C2CCCCC2)c1C(=O)c1ccc(Cl)cc1` [Example 15, {2-Amino-4-[(dicyclohexylamino)methyl]-5-(4-fluorophenyl)thiophen-3-yl}(4-chlorophenyl)methanone] the value was 222 to 224 °C.

The molecule `CC(C)CN(Cc1c(-c2ccccc2)sc(N)c1C(=O)c1ccc(Cl)cc1)CC(C)C` [Example 16-2, {2-Amino-4-[(diisobutylamino)methyl]-5-phenylthiophen-3-yl}(4-chlorophenyl)methanone] registered a melting point of 127 to 133 °C. The result for `Nc1sc(-c2ccccc2)c(CN(C2CCCC2)C2CCCC2)c1C(=O)c1ccc(Cl)cc1` [Example 16-4, {2-Amino-4-[(dicyclopentylamino)methyl]-5-phenylthiophen-3-yl}(4-chlorophenyl)methanone] reads 135 to 141 °C; that for `CCCN(Cc1c(-c2ccccc2)sc(N)c1C(=O)c1ccc(Cl)cc1)C1CCCCC1` [Example 16-5, {2-Amino-4-[(cyclohexyl(propyl)amino)methyl]-5-phenylthiophen-3-yl}(4-chlorophenyl)methanone], 162 to 165 °C; that for `C=CCN(Cc1c(-c2ccccc2)sc(N)c1C(=O)c1ccc(Cl)cc1)C1CCCCC1` [Example 16-6], 151 to 157 °C. On to `COC(=O)CN(C)Cc1c(-c2ccccc2)sc(N)c1C(=O)c1ccc(Cl)cc1` [Example 16-7], for which the melting point fell in the range of 156.5 to 160 °C. Regarding `COCCN(CCOC)Cc1c(-c2ccccc2)sc(N)c1C(=O)c1ccc(Cl)cc1` [Example 16-8, {2-Amino-4-[(bis(2-methoxyethyl)amino)methyl]-5-phenylthiophen-3-yl}(4-chlorophenyl)methanone], the melting point lay in the range of 140 to 145 °C. For `Nc1sc(-c2ccccc2)c(CNC23CC4CC(CC(C4)C2)C3)c1C(=O)c1ccc(Cl)cc1` [Example 16-10, {2-Amino-4-[(1-adamantylamino)methyl]-5-phenylthiophen-3-yl}(4-chlorophenyl)methanone] the value was 135 to 140 °C; for `CN(Cc1c(-c2ccccc2)sc(N)c1C(=O)c1ccc(Cl)cc1)c1ccc(Cl)c(Cl)c1` [Example 16-11, {2-Amino-4-[((3,4-dichlorophenyl)(methyl)amino)methyl]-5-phenylthiophen-3-yl}(4-chlorophenyl)methanone], 80 to 84 °C; for `COc1ccc(N(C)Cc2c(-c3ccccc3)sc(N)c2C(=O)c2ccc(Cl)cc2)cc1` [Example 16-12, {2-Amino-4-[((4-methoxyphenyl)(methyl)amino)methyl]-5-phenylthiophen-3-yl}(4-chlorophenyl)methanone], 131.5 to 136 °C. As to `Cc1ccc(N(C)Cc2c(-c3ccccc3)sc(N)c2C(=O)c2ccc(Cl)cc2)cc1` [Example 16-13, {2-Amino-4-[((4-methylphenyl)(methyl)amino)methyl]-5-phenylthiophen-3-yl}(4-chlorophenyl)methanone], the melting point was 173 to 176 °C. In turn, `Nc1sc(-c2ccc(Cl)c(Cl)c2)c(CN(C2CCCCC2)C2CCCCC2)c1C(=O)c1ccc(Cl)cc1` [Example 16-14, {2-Amino-5-(3,4-dichlorophenyl)-4-[(dicyclohexylamino)methyl]thiophen-3-yl}(4-chlorophenyl)methanone] registered a melting point of 222 to 225 °C. For `CC(C)Oc1ccc(-c2sc(N)c(C(=O)c3ccc(Cl)cc3)c2CN(C2CCCCC2)C2CCCCC2)cc1` [Example 16-15, {2-Amino-4-[(dicyclohexylamino)methyl]-5-(4-isopropoxyphenyl)thiophen-3-yl}(4-chlorophenyl)methanone] the value was 175 to 177 °C; for `Nc1sc(-c2cc(F)cc(F)c2)c(CN(C2CCCCC2)C2CCCCC2)c1C(=O)c1ccc(Cl)cc1` [Example 17, {2-Amino-4-[(dicyclohexylamino)methyl]-5-(3,5-difluorophenyl)thiophen-3-yl}(4-chlorophenyl)methanone], 163 to 166 °C. For `Cc1ccc(-c2sc(N)c(C(=O)c3ccc(Cl)cc3)c2CN(C2CCCCC2)C2CCCCC2)cc1` [Example 18, {2-Amino-4-[(dicyclohexylamino)methyl]-5-(4-methylphenyl)thiophen-3-yl}(4-chlorophenyl)methanone] the value was 191 to 194 °C; for `COc1ccc(-c2sc(N)c(C(=O)c3ccc(Cl)cc3)c2CN(C2CCCCC2)C2CCCCC2)cc1` [Example 19, {2-Amino-4-[(dicyclohexylamino)methyl]-5-(4-methoxyphenyl)thiophen-3-yl}(4-chlorophenyl)methanone], 178 to 182 °C; for `Nc1sc(-c2ccoc2)c(CN(C2CCCCC2)C2CCCCC2)c1C(=O)c1ccc(Cl)cc1` [Example 29, {2-Amino-[(dicyclohexylamino)methyl]-5-(furan-3-yl)thiophen-3-yl}(4-chlorophenyl)methanone], 132 to 135 °C. For `Nc1sc(-c2ccco2)c(CN(C2CCCCC2)C2CCCCC2)c1C(=O)c1ccc(Cl)cc1` [Example 31, {2-Amino-4-[(dicyclohexylamino)methyl]-5-(furan-2-yl)thiophen-3-yl}(4-chlorophenyl)methanone] the value was 158 to 160 °C. `Nc1sc(-c2ccc(Cl)s2)c(CN(C2CCCCC2)C2CCCCC2)c1C(=O)c1ccc(Cl)cc1` [Example 32, {5-Amino-5′-chloro-3-[(dicyclohexylamino)methyl]-2,2′-bithiophen-4-yl}(4-chlorophenyl)methanone] yielded a melting point of 195 to 197 °C.
